The values that follow come from patent publication US11072601B2, “μ-opioid receptor agonist and preparation method therefor and use thereof in field of medicine” (SHANGHAI SYNERGY PHARMACEUTICAL SCIENCES CO., LTD., priority 2017, dated 2021).

The target in experiment [1] is T1, cAMP pathway of MOR receptor (Homo sapiens, UniProt P35372).
T1 construct: host or cells: HEK293 (cAMP Hunter cell line)
Put plainly: cell-based. To be noted: cAMP Hunter HEK293 cells, forskolin-induced cAMP; read-out: EC50 of cAMP levels affected by agonistic effect on MOR. In general terms: cAMP levels reflect the balance of adenylyl cyclase and phosphodiesterase activity.

Experiment [2] has as its system rat surgical incision injury model. Put plainly: Rat surgical incision injury model, von Frey paw withdrawal threshold. To be noted: rats, intravenous 0.3 mg/kg. The experiment is classed as in vivo, SD rats. An excerpt:
8-week-old male SD rats weighing 200 g-300 g were used as experimental animals to determine the effect of the compound of Example H02, the compound of Example H04, the compound of Example H10, the compound of Example H16, the compound of Example H17, the compound of Example H18, the compound of Example H21 and the compound of Example H24 on surgical pain in rats after intravenous administration. The analgesic effect of the compounds was discussed.
A certain amount of the compounds or TRV130 (MCE, 15150) was weighed, and dissolved in ethanol/castor oil/water=10/10/80 as a clear and transparent solution.
Three days after the rats were acclimatized to the experimental environment, the preoperative base value was determined, and followed by the surgical pain operation described below, about 24 hours after the surgery, the basic value was measured before administration on all animals, and mechanically hypersensitive animals (the paw withdrawal threshold (PWT) was less than 5 g) was randomly assigned to each administration group according to PWT. The pain threshold was determined 30 minutes and 60 minutes after intravenous administration of the positive drug TRV130 or each compound of the present invention (at a dose of 0.3 mg/kg).
The surgical procedure was performed aseptically, and the surgical instruments (scissors, tweezers, scalpels, surgical cotton and sutures) were sterilized before surgery. The animals were anesthetized with sodium pentobarbital (50 mg/kg, injected intraperitoneally), and the toes of the animals were squeezed to confirm that the animals were completely anesthetized before surgery. From the position of 0.5 cm away from the heel, an incision about 1 cm was made in the longitudinal direction of the toe. After cutting the skin, the musculus flexor digitorum brevis was raised and a blunt injury was caused longitudinally. After pressing to stop bleeding, the wound was sutured. When the animal was completely awake (free to move), the animal was put back into the cage (the reference of the construction of surgical pain model: Timothy J. Brennan, Erik P. Vandermeulen, G. F. Gebhart. Characterization of a rat model of incisional pain. Pain, 64(1996):493-501).
An up-down method was used for the determination of pain sensitivity. The mechanical pain results were expressed as animal paw withdrawal response threshold (PWT). The rat was placed separately in a plexiglass box with a mesh at the bottom of the box to ensure that the rat's feet could be tested. The rat was acclimatized for 15 minutes before the test, and after the acclimatization, the test fiber (von frey fiber, West coast) was used to test in the middle part of the hind foot of the rat. The test fibers included 8 test strengths: 3.61 (0.4 g), 3.84 (0.6 g), 4.08 (1 g), 4.31 (2 g), 4.56 (4 g), 4.74 (6 g), 4.93 (8 g), and 5.18 (15 g). During the test, the test fiber was pressed vertically against the skin and a force was applied to bend the fiber for 6-8 seconds, at an interval of 5 seconds between each test. During the test, the animal's rapid withdrawal was recorded as a pain response. When the test fiber left the animal's skin, the animal's withdrawal was also recorded as a pain response. Starting from 2 g, depending on whether the rats had any pain response, the test was changed into the next test intensity or the previous test intensity. A series of responses of the rats to different test intensities were recorded. […] Wherein, Xf was the logarithmic value of von Frey fiber used in the last test, and K value was the animal withdrawal reaction mode (recorded during the test), which was the value obtained after looking up the table according to the obtained sequence of “X” and “O”, δ=Mean of logarithmic difference between von Frey fibers used in the test.

In experiment [3] the target is T2, β-arrestin signaling pathway of MOR (Homo sapiens, UniProt P35372).
T2 construct: host or cells: HEK293 (PathHunter cell line)
T2 sequence (P35372 whole entry): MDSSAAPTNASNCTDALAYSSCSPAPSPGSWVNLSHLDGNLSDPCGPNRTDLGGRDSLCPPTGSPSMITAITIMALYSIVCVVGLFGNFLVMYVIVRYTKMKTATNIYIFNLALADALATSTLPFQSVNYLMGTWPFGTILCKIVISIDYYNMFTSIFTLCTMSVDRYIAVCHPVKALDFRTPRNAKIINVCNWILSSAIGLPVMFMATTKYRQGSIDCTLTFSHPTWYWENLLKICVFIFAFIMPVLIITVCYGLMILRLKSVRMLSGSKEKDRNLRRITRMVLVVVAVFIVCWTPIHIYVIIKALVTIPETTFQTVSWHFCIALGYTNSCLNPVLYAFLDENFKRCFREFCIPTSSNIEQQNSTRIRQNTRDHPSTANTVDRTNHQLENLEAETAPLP
Put plainly: cell-based. To be noted: PathHunter HEK293 cells, relative to endorphin MAX control.

T1 sequence (P35372 whole entry): as above

`FC(F)Oc1ccsc1CNCCC1(c2ccccn2)CCOC2(CCCC2)C1` (stereo not drawn) [Example H18, ((3-difluoromethoxythiophen-2-yl)methyl)-[2-(9-(pyridin-2-yl)-6-oxaspiro[4.5]decan-9-yl)ethyl]a mine]: in experiment [1], the EC50 (commonly the concentration giving half of the maximal effect) was 2.35 nM. In experiment [2], the “50% PWT, 30 min after administration” value is 7.85 ± 0.54 g and the “50% PWT, 60 min after administration” value is listed as 6.91 ± 0.33 g. The Emax (as a rule, the greatest response seen or fitted, relative to the assay's reference) in experiment [3] amounted to 0.48%.

In the case of `FC(F)(F)Oc1ccc(Cl)cc1CNCCC1(c2ccccn2)CCOC2(CCCC2)C1` (stereo not drawn) [Example H17, (5-chloro-2-trifluoromethoxybenzyl)-[2-(9-(pyridin-2-yl)-6-oxaspiro[4.5]decan-9-yl)ethyl]amine], in experiment [1], the EC50 stood at 1.89 nM. Moreover, in experiment [2], the “50% PWT, 30 min after administration” value came to 8.85 ± 1.59 g and the “50% PWT, 60 min after administration” value was 7.91 ± 1.43 g. The compound also returned an Emax in experiment [3] of 1.78%.

In the case of `Cc1c(Cl)cccc1CNCCC1(c2ccccn2)CCOC2(CCCC2)C1` (stereo not drawn) [Example H04, (3-chloro-2-methylbenzyl)-[2-(9-(pyridin-2-yl)-6-oxaspiro[4.5]decan-9-yl)ethyl]amine], the concentration giving a half-maximal response (EC50) in experiment [1] was 4.36 nM. In experiment [2], the “50% PWT, 30 min after administration” value was found to be 11.72 ± 0.56 g and the “50% PWT, 60 min after administration” value amounted to 8.29 ± 1.06 g. This compound also had an Emax in experiment [3] of 6.12%.

Take `CNc1ccsc1C(=O)NCCC1(c2ccccn2)CCOC2(CCCC2)C1` (stereo not drawn) [Example H24, 3-methylamino-thiophene-2-carboxylic acid [2-(9-pyridin-2-yl-6-oxa-spiro[4.5]decan-9-yl)-ethyl]-amide]: the concentration giving a half-maximal response (EC50) in experiment [1] was determined as 3.74 nM. Also, in experiment [2], the “50% PWT, 30 min after administration” value is recorded as 11.32 ± 2.35 g and the “50% PWT, 60 min after administration” value was 7.29 ± 1.23 g. The compound further came in with an Emax in experiment [3] of 2.76%.

Consider `Fc1ccc(C2(CCNCc3ccccc3OC(F)(F)F)CCOC3(CCCC3)C2)nc1` (stereo not drawn) [Example H21, {2-[9-(5-fluoro-pyridin-2-yl)-6-oxa-spiro[4.5]decan-9-yl]-ethyl}-(2-(trifluoromethoxy)-phenmethyl)-amine], for which the EC50 in experiment [1] was 2.57 nM. Besides, in experiment [2], the “50% PWT, 30 min after administration” value worked out at 10.72 ± 2.56 g and the “50% PWT, 60 min after administration” value is reported as 8.29 ± 1.06 g. The compound also had an Emax in experiment [3] of 0.08%.

Regarding `FC(F)Oc1ccccc1CNCCC1(c2ccccn2)CCOC2(CCCC2)C1` (stereo not drawn) [Example H16, (2-difluoromethoxybenzyl)-[2-(9-(pyridin-2-yl)-6-oxaspiro[4.5]decan-9-yl)ethyl]amine], in experiment [1], the EC50 was found to be 1.36 nM. Also, in experiment [2], the “50% PWT, 30 min after administration” value amounted to 13.72 ± 0.56 g and the “50% PWT, 60 min after administration” value was 10.29 ± 1.06 g. The same compound yielded an Emax in experiment [3] of 3.12%.
